Test results as given in patent US9023789B2, “Amylin analogs and pharmaceutical compositions thereof” (Novo Nordisk A/S, priority 2012, dated 2015).
In brackets after ≈: the same amount, converted by molar mass. Where two headings read alike, the source gives them in different places. Numbered stars: 1 amine (or outer) side, 2 acyl side, 3 side chain; on linkers, the order of the positions; unused ones are H or OH. Bridge positions count the residues as written; N and C are the ends. Side chains are listed from the residue outwards. Peptide text beside a SMILES is read from it. * marks the point of attachment. C20 diacid = O=C(O)CCCCCCCCCCCCCCCCCCC(=O)*; γGlu = O=C(O)[C@H](CCC(=O)[*:2])N[*:1]

Tests used:
[1] = ASSAY (III) ThT fibrillation assay for physical stability; assay type: physicochemical
In short: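 Formulations with 1 μM ThT, pH adjusted as required, incubated at 37 °C with 960 rpm orbital shaking; fluorescence (ex 444/em 485 nm) read every 20 min. Fibrillation reported as mean ThT fluorescence ± SD of 4–8 replicates at time points; polypeptide concentration measured by reverse-phase HPLC before and after, post-centrifugation.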

[2] = ASSAY (IV) determination of solubility; assay type: physicochemical
In short: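 Polypeptide stock in water ([…]) was mixed 1:1 with 100 mM buffers: glycylglycine at pH 3.0, 4.0, 5.0 and bistrispropane at pH 6.0, 6.5, 7.0, 7.5, 8.0. After 18 hours at room temperature, samples were centrifuged and polypeptide concentration measured by UPLC.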

rat calcitonin receptor = target: T1, rat calcitonin receptor (Rattus norvegicus, UniProt P32214); test: ASSAY (VIII) binding to the rat calcitonin receptor; details: Table 7, read-out: rCTR bind IC50
T1 construct: expressed in transfected cells; host or cells: BHK tk'ts 13 (transient, FuGENE 6), membranes
T1 sequence (P32214 25-479 isoform P32214-2 limits assumed): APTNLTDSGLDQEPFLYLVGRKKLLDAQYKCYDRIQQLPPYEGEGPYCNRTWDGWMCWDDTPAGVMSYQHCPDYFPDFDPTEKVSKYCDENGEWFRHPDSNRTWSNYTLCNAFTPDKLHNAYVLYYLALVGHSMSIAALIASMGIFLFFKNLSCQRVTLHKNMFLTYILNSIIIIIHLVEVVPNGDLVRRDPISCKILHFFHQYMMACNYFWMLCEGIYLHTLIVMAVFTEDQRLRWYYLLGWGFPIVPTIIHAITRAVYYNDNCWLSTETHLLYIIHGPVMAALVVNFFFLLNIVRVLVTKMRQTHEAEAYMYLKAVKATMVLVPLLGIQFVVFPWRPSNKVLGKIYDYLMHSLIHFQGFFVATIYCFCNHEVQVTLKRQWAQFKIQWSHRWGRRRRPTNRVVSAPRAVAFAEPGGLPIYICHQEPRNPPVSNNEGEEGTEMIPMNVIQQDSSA
In short: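 Transfect BHK tk′ts 13 cells transiently with rat calcitonin receptor, culture in DMEM containing 10% FBS, collect cells about 48 hours later, then prepare membranes.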

[3] = bistrispropane buffer, pH 6.5, read-out: Solubility pH 6.5 Concentration
[4] = bistrispropane buffer, pH 7.5, read-out: Solubility pH 7.5 Concentration
[5] = bistrispropane buffer, pH 6.0, read-out: Solubility pH 6.0 Concentration
[6] = bistrispropane buffer, pH 7.0, read-out: Solubility pH 7.0 Concentration
[7] = bistrispropane buffer, pH 8.0, read-out: Solubility pH 8.0 Concentration
[8] = glycylglycine buffer, pH 3.0, read-out: Solubility pH 3.0 Concentration
[9] = glycylglycine buffer, pH 4.0, read-out: Solubility pH 4.0 Concentration
[10] = glycylglycine buffer, pH 5.0, read-out: Solubility pH 5.0 Concentration

Row | ThT pH 4.0 lag time (h) [1] [h] | solubility at 18 h [2, 3] [µM] | solubility at 18 h [2, 4] [µM] | solubility at 18 h [2, 5] [µM] | solubility at 18 h [2, 6] [µM] | solubility at 18 h [2, 7] [µM] | solubility at 18 h [2, 8] [µM] | solubility at 18 h [2, 9] [µM] | solubility at 18 h [2, 10] [µM] | Solubility pH 6.5 Concentration ([2]; pH 6.5 (Table 9a)) | Solubility pH 7.0 Concentration ([2]; pH 7.0 (Table 9a)) | IC50 (rat calcitonin receptor) [nM] | Structure (SMILES)
1 | 30 | ≥ 200 | 88 (≈ 415 µg/mL) | ≥ 200 | ≥ 200 | 43 (≈ 203 µg/mL) | ≥ 200 | ≥ 200 | ≥ 200 | ≧200 μM | ≧200 μM | 159 | CC[C@H](C)[C@H](NC(=O)[C@H](C)NC(=O)CNC(=O)[C@H](Cc1ccccc1)NC(=O)[C@H](CC(N)=O)NC(=O)[C@@H]1CCCN1C(=O)[C@H](CO)NC(=O)[C@H](CO)NC(=O)[C@H](Cc1c[nH]cn1)NC(=O)[C@H](CCCNC(=N)N)NC(=O)[C@H](CC(C)C)NC(=O)[C@H](Cc1ccccc1)NC(=O)[C@H](CC(N)=O)NC(=O)[C@H](C)NC(=O)[C@H](CC(C)C)NC(=O)[C@H](CCCNC(=N)N)NC(=O)[C@H](CCC(N)=O)NC(=O)[C@@H](NC(=O)[C@H](C)NC(=O)[C@@H]1CSSC[C@H](NC(=O)[C@@H](N)CCCCNC(=O)COCCOCCNC(=O)COCCOCCNC(=O)CC[C@H](NC(=O)CCCCCCCCCCCCCCCCCCC(=O)O)C(=O)O)C(=O)N[C@@H](CC(N)=O)C(=O)N[C@@H]([C@@H](C)O)C(=O)N[C@@H](C)C(=O)N[C@@H]([C@@H](C)O)C(=O)N1)[C@@H](C)O)C(=O)N1CCC[C@H]1C(=O)N[C@@H](CO)C(=O)N[C@@H](CO)C(=O)N[C@H](C(=O)N[C@@H](CC(N)=O)C(=O)N[C@H](C(=O)NCC(=O)N[C@@H](Cc1c[nH]cn1)C(=O)N[C@@H](CC(N)=O)C(=O)N[C@H](C(=O)N[C@@H](Cc1ccc(O)cc1)C(N)=O)[C@@H](C)O)C(C)C)[C@@H](C)O [Example 97]
2 | 21 | ≥ 200 | ≥ 200 | ≥ 200 | ≥ 200 | ≥ 200 | ≥ 200 | ≥ 200 | ≥ 200 | – | – | 35.5 | CC[C@H](C)[C@H](NC(=O)[C@H](C)NC(=O)CNC(=O)[C@H](Cc1ccccc1)NC(=O)[C@H](CC(N)=O)NC(=O)[C@@H]1CCCN1C(=O)[C@H](CO)NC(=O)[C@H](CO)NC(=O)[C@H](Cc1c[nH]cn1)NC(=O)[C@H](CCCNC(=N)N)NC(=O)[C@H](CC(C)C)NC(=O)[C@H](Cc1ccccc1)NC(=O)[C@H](CC(N)=O)NC(=O)[C@H](C)NC(=O)[C@H](CC(C)C)NC(=O)[C@H](CCCNC(=N)N)NC(=O)[C@H](CCC(N)=O)NC(=O)[C@@H](NC(=O)[C@H](C)NC(=O)[C@@H]1CSSC[C@H](NC(=O)[C@@H](N)CCCCNC(=O)CC[C@H](NC(=O)CCCCCCCCCCCCCCCCCCC(=O)O)C(=O)O)C(=O)N[C@@H](CC(N)=O)C(=O)N[C@@H]([C@@H](C)O)C(=O)N[C@@H](C)C(=O)N[C@@H]([C@@H](C)O)C(=O)N1)[C@@H](C)O)C(=O)N1CCC[C@H]1C(=O)N[C@@H](CO)C(=O)N[C@@H](CO)C(=O)N[C@H](C(=O)N[C@@H](CC(N)=O)C(=O)N[C@H](C(=O)NCC(=O)N[C@@H](CCCNC(=N)N)C(=O)N[C@@H](CC(N)=O)C(=O)N[C@H](C(=O)N[C@@H](Cc1ccc(O)cc1)C(N)=O)[C@@H](C)O)C(C)C)[C@@H](C)O [Example 79] (H-K([γGlu-C20 diacid])CNTATCATQRLANFLRHSSPNFGAIPSSTNVGRNTY-NH2; disulfide 2-7 (inferred); N-terminus assumed)
